This is an account of results in PubChem BioAssay AID272 (DTP/NCI, 2004).

In this assay the test system is Lewis lung carcinoma i.m., BDF1 mice, T/C %. As to the kind of experiment: NCI In Vivo Anticancer Drug Screen. Data for tumor model Lewis Lung Carcinoma (intramuscular) in B6D2F1 (BDF1) mice. The method, boiled down:
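Compound given to mice with transplantable tumours; survival or tumour size compared against the vehicle control group, reported as T divided by C.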

Setting [1] is: endpoint: mean tumor weight (est.), dose: 0.25 mg/kg/injection, schedule: Q01DX011 (ip), vehicle: saline, higher = larger tumour.
Where [2] appears, read: endpoint: mean tumor weight (est.), dose: 0.5 mg/kg/injection, schedule: Q01DX011 (ip), vehicle: saline, higher = larger tumour.
[3] abbreviates: endpoint: mean tumor weight (est.), dose: 1.0 mg/kg/injection, schedule: Q01DX011 (ip), vehicle: saline, higher = larger tumour.
The mark [4] stands for this setting: endpoint: mean tumor weight (est.), dose: 2.0 mg/kg/injection, schedule: Q01DX011 (ip), vehicle: saline, higher = larger tumour.
[5] abbreviates: endpoint: median survival time, dose: 0.25 mg/kg/injection, schedule: Q01DX011 (ip), vehicle: saline, higher = longer survival.
The mark [6] stands for this setting: endpoint: median survival time, dose: 0.5 mg/kg/injection, schedule: Q01DX011 (ip), vehicle: saline, higher = longer survival.
The mark [7] stands for this setting: endpoint: median survival time, dose: 1.0 mg/kg/injection, schedule: Q01DX011 (ip), vehicle: saline, higher = longer survival.
The mark [8] stands for this setting: endpoint: median survival time, dose: 2.0 mg/kg/injection, schedule: Q01DX011 (ip), vehicle: saline, higher = longer survival.

Records with an inconclusive call do not appear.

Turning to `CCCCCCCCCCCCn1c(C)nc2ccccc21`, the T/C runs as follows: (endpoint: mean tumor weight (est.), dose: 0.63 mg/kg/injection, schedule: Q01DX011 (ip), vehicle: saline, higher = larger tumour) 84 % of control; (endpoint: mean tumor weight (est.), dose: 1.25 mg/kg/injection, schedule: Q01DX011 (ip), vehicle: saline, higher = larger tumour) 89 % of control; (endpoint: median survival time, dose: 0.63 mg/kg/injection, schedule: Q01DX011 (ip), vehicle: saline, higher = longer survival) 104 % of control; (endpoint: median survival time, dose: 1.25 mg/kg/injection, schedule: Q01DX011 (ip), vehicle: saline, higher = longer survival) 98 % of control.

Regarding `c1ccc2c(c1)ccc1c[n+]3ccccc3cc12`, the T/C under setting [1] was 53 % of control and the T/C under setting [2] was 47 % of control.

Take `O=C1C=C(SCCO)C(=O)c2ccccc21`: the T/C (endpoint: mean tumor weight (est.), dose: 0.75 mg/kg/injection, schedule: Q01DX011 (ip), vehicle: other, higher = larger tumour) is 52 % of control; the T/C (endpoint: mean tumor weight (est.), dose: 1.5 mg/kg/injection, schedule: Q01DX011 (ip), vehicle: other, higher = larger tumour) is 40 % of control; the T/C (endpoint: mean tumor weight (est.), dose: 3.0 mg/kg/injection, schedule: Q01DX011 (ip), vehicle: other, higher = larger tumour) was 18 % of control; the T/C (endpoint: median survival time, dose: 0.75 mg/kg/injection, schedule: Q01DX011 (ip), vehicle: other, higher = longer survival) is 100 % of control; the T/C (endpoint: median survival time, dose: 1.5 mg/kg/injection, schedule: Q01DX011 (ip), vehicle: other, higher = longer survival) is 92 % of control; the T/C (endpoint: median survival time, dose: 3.0 mg/kg/injection, schedule: Q01DX011 (ip), vehicle: other, higher = longer survival) is 100 % of control.

On to `FC(F)(F)c1nc2nc(Cl)c(Cl)nc2[nH]1`, for which the T/C is 107 % of control (endpoint: median survival time, dose: 8.0 mg/kg/injection, schedule: Q01DX011 (ip), vehicle: saline, higher = longer survival); 112 % of control (endpoint: median survival time, dose: 16.0 mg/kg/injection, schedule: Q01DX011 (ip), vehicle: saline, higher = longer survival); 116 % of control (endpoint: median survival time, dose: 32.0 mg/kg/injection, schedule: Q01DX011 (ip), vehicle: saline, higher = longer survival).

For `Cc1cc2nc(CBr)c(CBr)nc2cc1C`, the T/C is 87 % of control (endpoint: mean tumor weight (est.), dose: 0.75 mg/kg/injection, schedule: Q01DX011 (ip), vehicle: saline with Tween-80, higher = larger tumour); 76 % of control (endpoint: mean tumor weight (est.), dose: 1.5 mg/kg/injection, schedule: Q01DX011 (ip), vehicle: saline with Tween-80, higher = larger tumour); 67 % of control (endpoint: mean tumor weight (est.), dose: 3.0 mg/kg/injection, schedule: Q01DX011 (ip), vehicle: saline with Tween-80, higher = larger tumour); 48 % of control (endpoint: mean tumor weight (est.), dose: 6.0 mg/kg/injection, schedule: Q01DX011 (ip), vehicle: saline with Tween-80, higher = larger tumour); 100 % of control (endpoint: median survival time, dose: 0.75 mg/kg/injection, schedule: Q01DX011 (ip), vehicle: saline with Tween-80, higher = longer survival); 101 % of control (endpoint: median survival time, dose: 1.5 mg/kg/injection, schedule: Q01DX011 (ip), vehicle: saline with Tween-80, higher = longer survival). Further, the T/C was 86 % of control (endpoint: median survival time, dose: 3.0 mg/kg/injection, schedule: Q01DX011 (ip), vehicle: saline with Tween-80, higher = longer survival) and 107 % of control (endpoint: median survival time, dose: 6.0 mg/kg/injection, schedule: Q01DX011 (ip), vehicle: saline with Tween-80, higher = longer survival).

Consider `COC(=O)CC(OC)c1nc(C(=O)OC)c(C)c(=O)[nH]1` (stereo unspecified), for which the T/C (endpoint: median survival time, dose: 8.0 mg/kg/injection, schedule: Q01DX009 (ip), vehicle: Klucel (hydroxypropylcellulose) (HPC), higher = longer survival) was 114 % of control; the T/C (endpoint: median survival time, dose: 16.0 mg/kg/injection, schedule: Q01DX009 (ip), vehicle: Klucel (hydroxypropylcellulose) (HPC), higher = longer survival) was 123 % of control; the T/C (endpoint: median survival time, dose: 32.0 mg/kg/injection, schedule: Q01DX009 (ip), vehicle: Klucel (hydroxypropylcellulose) (HPC), higher = longer survival) is 88 % of control.

Regarding `CO[C@H]1/C=C/O[C@@]2(C)Oc3c(C)c(O)c4c(O)c(c(/C=N/N5C(C)CN(Cc6ccccc6)CC5C)c(O)c4c3C2=O)NC(=O)/C(C)=C\C=C\[C@H](C)[C@H](O)[C@@H](C)[C@@H](O)[C@@H](C)[C@H](OC(C)=O)[C@@H]1C` (stereo partly specified), the T/C (endpoint: median survival time, dose: 25.0 mg/kg/injection, schedule: Q02DX009 (ip), vehicle: other, higher = longer survival) was 117 % of control; the T/C (endpoint: median survival time, dose: 50.0 mg/kg/injection, schedule: Q02DX009 (ip), vehicle: Klucel (hydroxypropylcellulose) (HPC), higher = longer survival) is 114 % of control; the T/C (endpoint: median survival time, dose: 50.0 mg/kg/injection, schedule: Q02DX009 (ip), vehicle: other, higher = longer survival) is 107 % of control; the T/C (endpoint: median survival time, dose: 200.0 mg/kg/injection, schedule: Q02DX009 (ip), vehicle: Klucel (hydroxypropylcellulose) (HPC), higher = longer survival) was 98 % of control; the T/C (endpoint: median survival time, dose: 200.0 mg/kg/injection, schedule: Q02DX009 (ip), vehicle: other, higher = longer survival) is 87 % of control; the T/C (endpoint: median survival time, dose: 400.0 mg/kg/injection, schedule: Q02DX009 (ip), vehicle: Klucel (hydroxypropylcellulose) (HPC), higher = longer survival) is 98 % of control.

Consider `CN1C=c2c3c(ccc2=C2C=CC4C=C5OCOC5=CC4=C21)OCO3` (stereo unspecified), for which the T/C is 78 % of control (endpoint: mean tumor weight (est.), dose: 7.5 mg/kg/injection, schedule: Q01DX011 (ip), vehicle: saline with Tween-80, higher = larger tumour); 51 % of control (endpoint: mean tumor weight (est.), dose: 15.0 mg/kg/injection, schedule: Q01DX011 (ip), vehicle: saline with Tween-80, higher = larger tumour); 122 % of control (endpoint: median survival time, dose: 7.5 mg/kg/injection, schedule: Q01DX011 (ip), vehicle: saline with Tween-80, higher = longer survival); 100 % of control (endpoint: median survival time, dose: 15.0 mg/kg/injection, schedule: Q01DX011 (ip), vehicle: saline with Tween-80, higher = longer survival).

`O=C(CBr)c1ccc(I)cc1`: the T/C is, setting by setting: (endpoint: median survival time, dose: 1.25 mg/kg/injection, schedule: Q01DX011 (ip), vehicle: saline with Tween-80, higher = longer survival) 102 % of control; (endpoint: median survival time, dose: 2.5 mg/kg/injection, schedule: Q01DX011 (ip), vehicle: saline with Tween-80, higher = longer survival) 86 % of control; (endpoint: median survival time, dose: 5.0 mg/kg/injection, schedule: Q01DX011 (ip), vehicle: saline with Tween-80, higher = longer survival) 89 % of control; (endpoint: median survival time, dose: 10.0 mg/kg/injection, schedule: Q01DX011 (ip), vehicle: saline with Tween-80, higher = longer survival) 104 % of control.

Turning to `COc1cccc2c1C(=O)c1c(O)c3c(c(O)c1C2=O)C[C@@](O)(C(=O)COC(=O)Cc1cccc2ccccc12)C[C@@H]3OC1CC(N)C(O)C(C)O1` (stereo partly specified), the T/C (endpoint: median survival time, dose: 0.25 mg/kg/injection, schedule: Q01DX011 (ip), vehicle: other, higher = longer survival) was 124 % of control; the T/C (endpoint: median survival time, dose: 0.5 mg/kg/injection, schedule: Q01DX011 (ip), vehicle: other, higher = longer survival) was 108 % of control; the T/C (endpoint: median survival time, dose: 1.0 mg/kg/injection, schedule: Q01DX011 (ip), vehicle: other, higher = longer survival) was 113 % of control.

Take `COc1cc([C@@H]2c3cc4c(cc3[C@@H](OC3OC5CO[C@@H](c6cccs6)OC5C(O)C3O)[C@H]3COC(=O)[C@H]23)OCO4)cc(OC)c1O` (stereo partly specified): the T/C was 98 % of control under setting [1]; 74 % of control under setting [2]; 68 % of control under setting [3]; 45 % of control under setting [4]; 118 % of control under setting [5]; 104 % of control under setting [6]. Moreover, the T/C reads like this: under setting [7], 106 % of control; under setting [8], 114 % of control; (endpoint: median survival time, dose: 2.0 mg/kg/injection, schedule: Q04DX003 (ip), vehicle: saline, higher = longer survival) 104 % of control; (endpoint: median survival time, dose: 4.0 mg/kg/injection, schedule: Q04DX003 (ip), vehicle: saline, higher = longer survival) 105 % of control; (endpoint: median survival time, dose: 8.0 mg/kg/injection, schedule: Q04DX003 (ip), vehicle: saline, higher = longer survival) 115 % of control; (endpoint: median survival time, dose: 32.0 mg/kg/injection, schedule: Q04DX003 (ip), vehicle: saline, higher = longer survival) 37 % of control.

Turning to `COc1cc([C@@H]2c3cc4c(cc3[C@@H](OC3OC5COC(C)OC5C(O)C3O)[C@H]3COC(=O)[C@H]23)OCO4)cc(OC)c1O` (stereo partly specified), the T/C under setting [1] is 72 % of control; the T/C under setting [2] is 67 % of control; the T/C under setting [3] was 79 % of control; the T/C under setting [4] is 74 % of control; the T/C (endpoint: mean tumor weight (est.), dose: 4.0 mg/kg/injection, schedule: Q01DX011 (ip), vehicle: saline, higher = larger tumour) is 43 % of control; the T/C (endpoint: mean tumor weight (est.), dose: 5.0 mg/kg/injection, schedule: Q01DX011 (ip), vehicle: saline, higher = larger tumour) was 105 % of control. Further, the T/C is, setting by setting: under setting [5], 96 % of control; under setting [6], 98 % of control; under setting [7], 96 % of control; under setting [8], 107 % of control; (endpoint: median survival time, dose: 4.0 mg/kg/injection, schedule: Q01DX011 (ip), vehicle: saline, higher = longer survival) 101 % of control.
